Here are results for 29 compounds from patent US9156796B2, “Benzoimidazole-carboxylic acid amide derivatives as APJ receptor modulators” (SANOFI, priority 2013, dated 2015).

Read-outs that look alike come from different tables or passages of the source.

For the assay, the target named is T1, human apelin receptor (Homo sapiens, UniProt P35414).
T1 construct: expressed in transfected cells
T1 sequence (P35414 1-380): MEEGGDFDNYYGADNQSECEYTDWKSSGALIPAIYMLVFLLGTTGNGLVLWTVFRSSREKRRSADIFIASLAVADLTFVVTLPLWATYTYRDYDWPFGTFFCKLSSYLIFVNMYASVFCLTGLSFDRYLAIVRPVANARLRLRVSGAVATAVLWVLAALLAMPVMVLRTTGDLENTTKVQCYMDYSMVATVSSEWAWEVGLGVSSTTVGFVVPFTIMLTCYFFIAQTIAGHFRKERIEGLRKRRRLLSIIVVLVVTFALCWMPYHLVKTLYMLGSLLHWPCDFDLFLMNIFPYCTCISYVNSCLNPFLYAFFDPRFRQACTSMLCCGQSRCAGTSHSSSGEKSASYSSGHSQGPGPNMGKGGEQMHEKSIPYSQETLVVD
Description: Determination of agonism on the human apelin receptor by a calcium fluorescence assay (FLIPR). The format is cell-based. The note with it: HEK293 cells stably transfected with human apelin receptor and Giaq protein, Fluo-4 calcium fluorescence. An outline of the steps: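 Agonist EC50s come from peak intracellular calcium transients recorded by FLIPR Tetra, scaled to the 1 μM apelin-13 maximum per plate. Test system: HEK293 stably transfected with human apelin receptor plus Giaq, Fluo-4-loaded (4 μM, 1 h, 37 °C, pH 7.4 buffer with probenecid); ≥7 concentrations, triplicates.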

As to `CCCC(CCO)NC(=O)c1ccc2c(c1)nc(Cc1cccs1)n2C(CC)CC` (centres unmarked) [Example 214, 1-(1-Ethyl-propyl)-2-thiophen-2-ylmethyl-1H-benzoimidazole-5-carboxylic acid [1-(2-hydroxy-ethyl)-butyl]-amide], the concentration giving a half-maximal response (EC50) (read-out: EC50 (APJ agonism)) stood at 0.926 µM. With `CCC[C@H](NC(=O)c1ccc2c(c1)nc(Cc1cccs1)n2C(CC)CC)C(=O)O` [Example 94, (S)-2-{[1-(1-Ethyl-propyl)-2-thiophen-2-ylmethyl-1H-benzoimidazole-5-carbonyl]-amino}-pentanoic acid], the half-maximal effective concentration (EC50) (read-out: EC50 (APJ agonism)) stood at 0.781 µM. As to `CC(C)C[C@@H](CC(=O)O)NC(=O)c1ccc2c(c1)nc(Cc1cccs1)n2CC1CCCCC1` [Example 97, (S)-3-[(1-Cyclohexylmethyl-2-thiophen-2-ylmethyl-1H-benzoimidazole-5-carbonyl)-amino]-5-methyl-hexanoic acid], the EC50 (read-out: EC50 (APJ agonism)) worked out at 39 µM. As for `CCC(CC)n1c(Cc2cccs2)nc2cc(C(=O)N[C@@H](CC3CCC3)C(=O)O)ccc21` [Example 22, (S)-3-Cyclobutyl-2-{[1-(1-ethyl-propyl)-2-thiophen-2-ylmethyl-1H-benzoimidazole-5-carbonyl]-amino}-propionic acid], the 50% effective concentration (EC50) (read-out: EC50 (APJ agonism)) came out at 0.08 µM. For the compound `CCC(CC)n1c(Cc2cccs2)nc2cc(C(=O)NC(CC(C)C)c3cccnc3)ccc21` (centres unmarked) [Example 478, 1-(1-Ethyl-propyl)-2-thiophen-2-ylmethyl-1H-benzoimidazole-5-carboxylic acid (3-methyl-1-pyridin-3-yl-butyl)-amide], where the note is “read-out: EC50 (APJ agonism)”, the EC50 is 3.15 µM.

On to `CCC(CC)n1c(Cc2cccs2)nc2cc(C(=O)N[C@@H](CC(C)C)C(=O)N[C@@H](C)COC)ccc21` [Example 370, 1-(1-Ethyl-propyl)-2-thiophen-2-ylmethyl-1H-benzoimidazole-5-carboxylic acid [(S)-1-((S)-2-methoxy-1-methyl-ethylcarbamoyl)-3-methyl-butyl]-amide], for which, under “read-out: EC50 (APJ agonism)”, the EC50 amounted to 2.85 µM.

Take `CCC(CC)n1c(Cc2cccs2)nc2cc(C(=O)N[C@H](CO)CC(C)C)ccc21` [Example 209, 1-(1-Ethyl-propyl)-2-thiophen-2-ylmethyl-1H-benzoimidazole-5-carboxylic acid ((S)-1-hydroxymethyl-3-methyl-butyl)-amide]: the concentration for a half-maximal effect (EC50) (read-out: EC50 (APJ agonism)) turned out to be 0.254 µM. For `CCC(CC)n1c(Cc2cccs2)nc2cc(C(=O)N[C@@H](CC3CCCCC3)[C@H](O)CC(=O)O)ccc21` [Example 73, (3R,4S)-5-Cyclohexyl-4-{[1-(1-ethyl-propyl)-2-thiophen-2-ylmethyl-1H-benzoimidazole-5-carbonyl]-amino}-3-hydroxy-pentanoic acid], the EC50 (read-out: EC50 (APJ agonism)) was 0.065 µM. As to `CCCCC(CC(=O)O)NC(=O)c1ccc2c(c1)nc(Cc1cccs1)n2C(CC)CC` (centres unmarked) [Example 45, 3-{[1-(1-Ethyl-propyl)-2-thiophen-2-ylmethyl-1H-benzoimidazole-5-carbonyl]-amino}-heptanoic acid], the EC50 (read-out: EC50 (APJ agonism)) stood at 0.552 µM.

`CCC(CC)n1c(Cc2cccs2)nc2cc(C(=O)N[C@H](CC(=O)O)CC(C)C)ccc21` [Example 107, (S)-3-{[1-(1-Ethyl-propyl)-2-thiophen-2-ylmethyl-1H-benzoimidazole-5-carbonyl]-amino}-5-methyl-hexanoic acid]: the EC50 (read-out: EC50 (APJ agonism)) was 0.047 µM. Take `C[C@H]1CCCC[C@@H]1n1c(Cc2cccs2)nc2cc(C(=O)NC(CC(=O)O)CC3CCCCC3)ccc21` (stereo partly drawn) [Example 52, 4-Cyclohexyl-3-{[1-((1S,2S)-2-methyl-cyclohexyl)-2-thiophen-2-ylmethyl-1H-benzoimidazole-5-carbonyl]-amino}-butyric acid]: the EC50 (read-out: EC50 (APJ agonism)) came to 12.3 µM. `CCC(CC)n1c(Cc2cccs2)nc2cc(C(=O)N[C@@H](CO)CCSC)ccc21` [Example 195, 1-(1-Ethyl-propyl)-2-thiophen-2-ylmethyl-1H-benzoimidazole-5-carboxylic acid ((R)-1-hydroxymethyl-3-methylsulfanyl-propyl)-amide]: under “read-out: EC50 (APJ agonism)”, the EC50 worked out at 15.2 µM. Regarding `CCC(CC)n1c(CC2CCCC2)nc2cc(C(=O)N[C@@H](CO)CC(C)C)ccc21` [Example 176, 2-Cyclopentylmethyl-1-(1-ethyl-propyl)-1H-benzoimidazole-5-carboxylic acid ((R)-1-hydroxymethyl-3-methyl-butyl)-amide], the half-maximal effective concentration (EC50) (read-out: EC50 (APJ agonism)) was 8.91 µM. Turning to `CCC(CC)n1c(Cc2cccs2)nc2cc(C(=O)N[C@@H](CC(C)C)C(=O)N3CCCN(Cc4c(F)cccc4Cl)CC3)ccc21` [Example 274, 1-(1-Ethyl-propyl)-2-thiophen-2-ylmethyl-1H-benzoimidazole-5-carboxylic acid {(S)-1-[4-(2-chloro-6-fluoro-benzyl)-[1,4]diazepane-1-carbonyl]-3-methyl-butyl}-amide], for the setting “read-out: EC50 (APJ agonism)”, the EC50 was determined as 12.6 µM. Take `Cc1ccc(-n2c(Cc3cccs3)nc3cc(C(=O)N[C@@H](CC(C)C)C(=O)O)ccc32)cc1` [Example 115, (S)-4-Methyl-2-[(2-thiophen-2-ylmethyl-1-p-tolyl-1H-benzoimidazole-5-carbonyl)-amino]-pentanoic acid]: where the note is “read-out: EC50 (APJ agonism)”, the EC50 came out at 34.6 µM. Turning to `CC(C)C[C@H](NC(=O)c1ccc2c(c1)nc(CC1CCCC1)n2C1CCCCC1C)C(=O)O` (stereo partly drawn) [Example 150, (S)-2-{[2-Cyclopentylmethyl-1-(2-methyl-cyclohexyl)-1H-benzoimidazole-5-carbonyl]-amino}-4-methyl-pentanoic acid], the 50% effective concentration (EC50) (read-out: EC50 (APJ agonism)) was found to be 2.8 µM. Consider `CC(C)C[C@H](NC(=O)c1ccc2c(c1)nc(CC1CCCC1)n2CC(C)C)C(=O)O` [Example 128, (S)-2-[(2-Cyclopentylmethyl-1-isobutyl-1H-benzoimidazole-5-carbonyl)-amino]-4-methyl-pentanoic acid], for which, where the note is “read-out: EC50 (APJ agonism)”, the EC50 came out at 10 µM. As to `CC(C)C[C@@H](CO)NC(=O)c1ccc2c(c1)nc(Cc1cccs1)n2C1CCCCC1C` (stereo partly drawn) [Example 211, 1-(2-Methyl-cyclohexyl)-2-thiophen-2-ylmethyl-1H-benzoimidazole-5-carboxylic acid ((S)-1-hydroxymethyl-3-methyl-butyl)-amide], under “read-out: EC50 (APJ agonism)”, the EC50 is 0.705 µM. Regarding `CCCC[C@H](CO)NC(=O)c1ccc2c(c1)nc(CC1CCCC1)n2C(CC)CC` [Example 183, 2-Cyclopentylmethyl-1-(1-ethyl-propyl)-1H-benzoimidazole-5-carboxylic acid ((R)-1-hydroxymethyl-pentyl)-amide], where the note is “EC50 (APJ agonism)”, the half-maximal effective concentration (EC50) came out at 26.3 µM. Take `CCC(CC)n1c(CC2CCCC2)nc2cc(C(=O)N[C@H](CO)CC(C)C)ccc21` [Example 175, 2-Cyclopentylmethyl-1-(1-ethyl-propyl)-1H-benzoimidazole-5-carboxylic acid ((S)-1-hydroxymethyl-3-methyl-butyl)-amide]: the EC50 (read-out: EC50 (APJ agonism)) was 0.501 µM.

With `CCC(CC)n1c(Cc2cccs2)nc2cc(C(=O)N[C@@H](CC(C)C)C(=O)NCCN3CCCCC3)ccc21` [Example 233, 1-(1-Ethyl-propyl)-2-thiophen-2-ylmethyl-1H-benzoimidazole-5-carboxylic acid [(S)-3-methyl-1-(2-piperidin-1-yl-ethylcarbamoyl)-butyl]-amide], under “read-out: EC50 (APJ agonism)”, the 50% effective concentration (EC50) worked out at 0.394 µM. The same measure, in the same setting: as for `CCCC(NC(=O)c1ccc2c(c1)nc(Cc1cccs1)n2C(CC)CC)C(C)(C)C(=O)O` (single isomer, unassigned) [Example 467], the figure is 0.265 µM.

Take `CC(C)Cn1c(CC2CCCCC2)nc2cc(C(=O)N[C@@H](CC3CCCCC3)C(=O)O)ccc21` [Example 134, (S)-3-Cyclohexyl-2-[(2-cyclohexylmethyl-1-isobutyl-1H-benzoimidazole-5-carbonyl)-amino]-propionic acid]: the EC50 (read-out: EC50 (APJ agonism)) is 7.15 µM.

Regarding `CCC(CC)n1c(Cc2cccs2)nc2cc(C(=O)N[C@@H](CC(C)C)C(=O)NC)ccc21` [Example 381, 1-(1-Ethyl-propyl)-2-thiophen-2-ylmethyl-1H-benzoimidazole-5-carboxylic acid ((S)-3-methyl-1-methylcarbamoyl-butyl)-amide], for the setting “read-out: EC50 (APJ agonism)”, the 50% effective concentration (EC50) came to 0.97 µM. On to `CCC(CC)n1c(Cc2cccs2)nc2cc(C(=O)N[C@@H](CC(C)C)C(=O)NCCCSC)ccc21` [Example 248, 1-(1-Ethyl-propyl)-2-thiophen-2-ylmethyl-1H-benzoimidazole-5-carboxylic acid [(S)-3-methyl-1-(3-methylsulfanyl-propylcarbamoyl)-butyl]-amide], for which, under “read-out: EC50 (APJ agonism)”, the EC50 worked out at 1.8 µM.

`CCCC[C@H](NC(=O)c1ccc2c(c1)nc(Cc1cccs1)n2C1CCCCC1C)C(=O)O` (single isomer, unassigned) [Example 422]: the concentration for a half-maximal effect (EC50) (read-out: EC50 (APJ agonism)) was 1.86 µM.

With `CCC(CC)n1c(Cc2cccs2)nc2cc(C(=O)N[C@@H](CC(C)C)C(=O)NCCC(F)(F)F)ccc21` [Example 251, 1-(-Ethyl-propyl)-2-thiophen-2-ylmethyl-1H-benzoimidazole-5-carboxylic acid [(S)-3-methyl-1-(3,3,3-trifluoro-propylcarbamoyl)-butyl]-amide], the EC50 (read-out: EC50 (APJ agonism)) worked out at 2.56 µM.

As to `CCC(CC)n1c(Cc2cccs2)nc2cc(C(=O)N[C@@H](CC(C)C)C(=O)NCCc3nnn[nH]3)ccc21` [Example 400, 1-(1-Ethyl-propyl)-2-thiophen-2-ylmethyl-1H-benzoimidazole-5-carboxylic acid {(S)-3-methyl-1-[2-(1H-tetrazol-5-yl)-ethylcarbamoyl]-butyl}-amide], where the note is “read-out: EC50 (APJ agonism)”, the EC50 worked out at 0.07 µM. Regarding `CCC(CC)n1c(Cc2ccco2)nc2cc(C(=O)N[C@H](CC3CCCCC3)C(=O)O)ccc21` [Example 9, (R)-3-Cyclohexyl-2-{[1-(1-ethyl-propyl)-2-furan-2-ylmethyl-1H-benzoimidazole-5-carbonyl]-amino}-propionic acid], for the setting “read-out: EC50 (APJ agonism)”, the EC50 is 0.585 µM.

The term EC50 denotes the concentration at which the effect is half-maximal.
